Converted amounts (≈) assume the structure as drawn. The source made the active and inactive calls. The calls are words filed in the database; no cut-off is given here.
Columns and labels:
Erythrocyte = test: Hemolytic activity in mouse RBC assessed as hemolysis at 62.5 uM incubated for 1 hr; type: toxicity, cell-based
Staphylococcus aureus [1] = test: Synergistic antibacterial activity against methicillin-resistant Staphylococcus aureus ATCC 43300 assessed as linezolid MIC incubated for 18 to 20 hrs by checkboard assay; type: functional; conditions: time 18-20 hrs
Staphylococcus aureus [2] = test: Drug resistance, ratio of MIC for methicillin-resistant Staphylococcus aureus after 20 days exposure to MIC for methicillin-resistant Staphylococcus aureus during first exposure; type: functional; conditions: time 20 day
Enterococcus faecalis [3] = test: Antibacterial activity against Enterococcus faecalis ATCC 29212 assessed as reduction in bacterial growth incubated for 18 to 20 hrs by broth microdilution assay; type: functional; conditions: time 18-20 hrs
Enterococcus faecalis [4] = test: Synergistic antibacterial activity against Enterococcus faecalis ATCC 29212 assessed as vancomycin MIC incubated for 18 to 20 hrs by checkboard assay; type: functional; conditions: time 18-20 hrs
Staphylococcus aureus [5] = test: Antibacterial activity against […] Staphylococcus aureus ATCC 43300 assessed as reduction in bacterial growth incubated for 18 to 20 hrs by broth microdilution assay; type: functional; conditions: time 18-20 hrs
Enterococcus faecalis [6] = test: Synergistic antibacterial activity against Enterococcus faecalis ATCC 29212 assessed as gentamicin MIC incubated for 18 to 20 hrs by checkboard assay; type: functional; conditions: time 18-20 hrs
Staphylococcus aureus [7] = test: Synergistic antibacterial activity against methicillin-resistant Staphylococcus aureus ATCC 43300 assessed as fractional inhibitory concentration index incubated for 18 to 20 hrs in presence of vancomycin by checkboard assay; type: functional; conditions: time 18-20 hrs
Staphylococcus aureus [8] = test: Drug resistance, ratio of MIC for Staphylococcus aureus ATCC 25923 after 20 days exposure to MIC for Staphylococcus aureus ATCC 25923 during first exposure; type: functional; conditions: time 20 day
Staphylococcus aureus [9] = test: Synergistic antibacterial activity against methicillin-resistant Staphylococcus aureus ATCC 43300 incubated for 18 to 20 hrs in presence of vancomycin by checkboard assay; type: functional; conditions: time 18-20 hrs
Staphylococcus aureus [10] = test: Antibacterial activity against Staphylococcus aureus ATCC 25923 assessed as inhibition of bacterial growth at 40 uM incubated for 18 to 24 hrs by broth microdilution assay relative to control; type: functional; conditions: time 18-24 hrs
[11] = Toxicity in Caenorhabditis elegans AU37 assessed as worms survival at 10 uM measured after 72 hrs
Enterococcus faecalis [12] = test: Synergistic antibacterial activity against Enterococcus faecalis ATCC 29212 incubated for 18 to 20 hrs in presence of ciprofloxacin by checkboard assay; type: functional; conditions: time 18-20 hrs
Staphylococcus aureus [13] = test: Antimicrobial activity against methicillin-resistant Staphylococcus aureus ATCC 43300 infected in Caenorhabditis elegans AU37 assessed as reduction in bacterial burden at 20 uM incubated for 18 hrs; type: functional; parameters: scale not given: the % may be the effect or the level left
[14] = Hemolytic activity in mouse RBC assessed as hemolysis at 250 uM incubated for 1 hr; type: toxicity, cell-based, Erythrocyte; conditions: mouse red blood cells (erythrocytes), read-out: Activity
Staphylococcus aureus [15] = test: Antibiofilm activity against Staphylococcus aureus ATCC 25923 assessed as inhibition of biofilm viability at 100 uM incubated for 18 to 20 hrs by resazurin staining based assay; type: functional; conditions: time 18-20 hrs
Staphylococcus aureus [16] = test: Synergistic antibacterial activity against methicillin-resistant Staphylococcus aureus ATCC 43300 assessed as gentamicin MIC incubated for 18 to 20 hrs by checkboard assay; type: functional; conditions: time 18-20 hrs
Enterococcus faecalis [17] = test: Synergistic antibacterial activity against Enterococcus faecalis ATCC 29212 incubated for 18 to 20 hrs in presence of vancomycin by checkboard assay; type: functional; conditions: time 18-20 hrs
Staphylococcus aureus [18] = test: Synergistic antibacterial activity against Staphylococcus aureus ATCC 25923 incubated for 18 to 20 hrs in presence of linezolid by checkboard assay; type: functional; conditions: time 18-20 hrs
Enterococcus faecalis [19] = test: Bactericidal activity against Enterococcus faecalis ATCC 29212 assessed as reduction in bacterial growth at 0.5 to 8 times MIC incubated for 24 hrs by time-kill assay; type: functional
Staphylococcus aureus [20] = test: Synergistic antibacterial activity against methicillin-resistant Staphylococcus aureus ATCC 43300 assessed as fractional inhibitory concentration index incubated for 18 to 20 hrs in presence of gentamicin by checkboard assay; type: functional; conditions: time 18-20 hrs
Acinetobacter baumannii = test: Antibacterial activity against Acinetobacter baumannii NCTC 13423 assessed as reduction in bacterial growth incubated for 18 to 20 hrs by broth microdilution assay; type: functional; conditions: time 18-20 hrs
Enterococcus faecalis [21] = test: Synergistic antibacterial activity against Enterococcus faecalis ATCC 29212 assessed as fractional inhibitory concentration index incubated for 18 to 20 hrs in presence of vancomycin by checkboard assay; type: functional; conditions: time 18-20 hrs
Staphylococcus aureus [22] = test: Synergistic antibacterial activity against Staphylococcus aureus ATCC 25923 incubated for 18 to 20 hrs in presence of gentamicin by checkboard assay; type: functional; conditions: time 18-20 hrs
[23] = Cytotoxicity against human THP-1 cells assessed as reduction in cell viability incubated for 24 hrs by resazurin staining based analysis; type: toxicity
Enterococcus faecalis [24] = test: Synergistic antibacterial activity against Enterococcus faecalis ATCC 29212 assessed as linezolid MIC incubated for 18 to 20 hrs by checkboard assay; type: functional; conditions: time 18-20 hrs
Staphylococcus aureus [25] = test: Antimicrobial activity against Staphylococcus aureus ATCC 25923 infected in Caenorhabditis elegans AU37 assessed as reduction in bacterial burden at 20 uM incubated for 18 hrs; type: functional; parameters: scale not given: the % may be the effect or the level left
Enterococcus faecalis [26] = test: Synergistic antibacterial activity against Enterococcus faecalis ATCC 29212 incubated for 18 to 20 hrs in presence of linezolid by checkboard assay; type: functional; conditions: time 18-20 hrs
Staphylococcus aureus [27] = test: Synergistic antibacterial activity against Staphylococcus aureus ATCC 25923 assessed as vancomycin MIC incubated for 18 to 20 hrs by checkboard assay; type: functional; conditions: time 18-20 hrs
[28] = test system: Staphylococcus epidermidis; test: Antibacterial activity against […] Staphylococcus epidermidis RP62A assessed as reduction in bacterial growth incubated for 18 to 20 hrs by broth microdilution assay; type: functional; conditions: time 18-20 hrs
Cell membrane = test: Induction of cytoplasmic membrane depolarization in Staphylococcus aureus ATCC 25923 assessed as increase in fluorescence intensity at 4 times MIC measured for 30 mins by DiSC3(5) dye based fluorescence method; type: cell membranes
Enterococcus faecium = test: Antibacterial activity against vancomycin-resistant Enterococcus faecium ATCC 700221 assessed as reduction in bacterial growth incubated for 18 to 20 hrs by broth microdilution assay; type: functional; conditions: time 18-20 hrs
Enterococcus faecalis [29] = test: Antibacterial activity against vancomycin-resistant Enterococcus faecalis ATCC 51575 assessed as reduction in bacterial growth incubated for 18 to 20 hrs by broth microdilution assay; type: functional; conditions: time 18-20 hrs
Staphylococcus aureus [30] = test: Synergistic antibacterial activity against Staphylococcus aureus ATCC 25923 assessed as fractional inhibitory concentration index incubated for 18 to 20 hrs in presence of gentamicin by checkboard assay; type: functional; conditions: time 18-20 hrs
Staphylococcus aureus [31] = test: Antibacterial activity against Staphylococcus aureus ATCC 43300 assessed as reduction in bacterial growth incubated for 18 to 20 hrs by broth microdilution assay; type: functional; conditions: time 18-20 hrs
Staphylococcus aureus [32] = test: Synergistic antibacterial activity against Staphylococcus aureus ATCC 25923 assessed as linezolid MIC incubated for 18 to 20 hrs by checkboard assay; type: functional; conditions: time 18-20 hrs
Staphylococcus aureus [33] = test: Bactericidal activity against Staphylococcus aureus ATCC 25923 assessed as log reduction in colony forming units at 0.5 to 8 times MIC measured after 24 hrs by time kill-assay; type: functional
A549 = test: Cytotoxicity against human A549 cells assessed as reduction in cell viability at 100 uM incubated for 24 hrs by resazurin staining based analysis relative to control; type: functional
Enterococcus faecalis [34] = test: Synergistic antibacterial activity against Enterococcus faecalis ATCC 29212 assessed as fractional inhibitory concentration index incubated for 18 to 20 hrs in presence of linezolid by checkboard assay; type: functional; conditions: time 18-20 hrs

## O=C(O)c1cc2cc(OCc3ccc(C4CCCCC4)c(C(F)(F)F)c3)ccc2[nH]1
Erythrocyte
  Activity: Non-Toxic
Staphylococcus aureus [1]
  MIC: 5 µM
Staphylococcus aureus [2]
  Ratio: 3
Enterococcus faecalis [3]
  MIC: 5 µM (≈ 2.09 µg/mL)
Enterococcus faecalis [4]
  MIC: 2.5 µM
Staphylococcus aureus [5]
  MIC: 2.5 µM (≈ 1.04 µg/mL)
Enterococcus faecalis [6]
  MIC: 1 µg/mL
Staphylococcus aureus [7]
  fractional inhibitory concentration index (FICI): 2
Staphylococcus aureus [8]
  Ratio: 3
Staphylococcus aureus [9]
  MIC: 2.5 µM
Staphylococcus aureus [10]
  inhibition at 40 µM: ≤ 90%
[11]
  Activity: Non-Toxic
Enterococcus faecalis [12]
  MIC: 1.25 µM
Staphylococcus aureus [13]
  Activity: 88%
[14]
  hemolysis at 1 h, 250 µM: 100%
Staphylococcus aureus [15]
  inhibition at 100 µM: > 90%
Staphylococcus aureus [16]
  MIC: 32 µg/mL
Enterococcus faecalis [17]
  MIC: 5 µM
Staphylococcus aureus [18]
  MIC: 2.5 µM
Enterococcus faecalis [19]
  MBC: 5 µM (≈ 2.09 µg/mL)
Staphylococcus aureus [20]
  fractional inhibitory concentration index (FICI): <=0.5
Acinetobacter baumannii
  MIC: > 200 µM
Enterococcus faecalis [21]
  fractional inhibitory concentration index (FICI): 2
Staphylococcus aureus [22]
  MIC: 1.25 µM
[23]
  CC50 at 24 h: > 100 µM
Enterococcus faecalis [24]
  MIC: 10 µM
Staphylococcus aureus [25]
  Activity: >85%
Enterococcus faecalis [26]
  MIC: 5 µM
Staphylococcus aureus [27]
  MIC: 0.625 µM
[28]
  MIC: 2.5 µM (≈ 1.04 µg/mL)
Cell membrane
  Activity: inactive
Enterococcus faecium
  MIC: 5 µM (≈ 2.09 µg/mL)
Enterococcus faecalis [29]
  MIC: 10 µM (≈ 4.17 µg/mL)
Staphylococcus aureus [30]
  fractional inhibitory concentration index (FICI): 0.5
Staphylococcus aureus [31]
  MIC: 2.5 µM (≈ 1.04 µg/mL)
Staphylococcus aureus [32]
  MIC: 5 µM
Staphylococcus aureus [33]
  log(activity): >5
A549
  Activity: ~20%
Enterococcus faecalis [34]
  fractional inhibitory concentration index (FICI): 2

— ChEMBL document CHEMBL5532643, “Design and synthesis of etrasimod derivatives as potent antibacterial agents against Gram-positive bacteria” (Eur J Med Chem, 2024)
